Holding throughout (assay): relative viability (nuclei count vs DMSO), 5 days (fraction); higher = more cells survive
Compound in the assay “Carfilzomib + Trametinib”: CC(C)C[C@H](NC(=O)[C@H](CCc1ccccc1)NC(=O)CN1CCOCC1)C(=O)N[C@@H](Cc1ccccc1)C(=O)N[C@@H](CC(C)C)C(=O)[C@@]1(C)CO1 [Carfilzomib] + CC(=O)Nc1cccc(-n2c(=O)n(C3CC3)c(=O)c3c(Nc4ccc(I)cc4F)n(C)c(=O)c(C)c32)c1 [Trametinib] (partner 0.02 µM)
The gist of the method:
(§1)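 Lung cancer cell lines were pin-tool dosed in 1536-well plates on the day after seeding, with either a lone drug or a fixed anchor-drug dose plus five library-drug doses (not always all listed) in √10 steps. Nuclei were counted on 4× images after 5 days. Relative viability is the ratio of treated-well to vehicle-well nuclei counts, with each value a median of duplicate plates.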

Compound in the assay “Carfilzomib + Foretinib”: CC(C)C[C@H](NC(=O)[C@H](CCc1ccccc1)NC(=O)CN1CCOCC1)C(=O)N[C@@H](Cc1ccccc1)C(=O)N[C@@H](CC(C)C)C(=O)[C@@]1(C)CO1 [Carfilzomib] + COc1cc2c(Oc3ccc(NC(=O)C4(C(=O)Nc5ccc(F)cc5)CC4)cc3F)ccnc2cc1OCCCN1CCOCC1 [Foretinib] (partner 0.25 µM)
The gist of the method: as §1

Compound in the assay “Crizotinib + Tozasertib”: C[C@@H](Oc1cc(-c2cnn(C3CCNCC3)c2)cnc1N)c1c(Cl)ccc(F)c1Cl [Crizotinib] + Cc1cc(Nc2cc(N3CCN(C)CC3)nc(Sc3ccc(NC(=O)C4CC4)cc3)n2)n[nH]1 [Tozasertib] (partner 0.1 µM)
In short, it runs like this: as §1

Compound in the assay “Olaparib + Luminespib”: O=C(c1cc(Cc2n[nH]c(=O)c3ccccc23)ccc1F)N1CCN(C(=O)C2CC2)CC1 [Olaparib] + CCNC(=O)c1noc(-c2cc(C(C)C)c(O)cc2O)c1-c1ccc(CN2CCOCC2)cc1 [Luminespib] (partner 0.01 µM)
The gist of the method: as §1

Compound in the assay “Olaparib + Lapatinib”: O=C(c1cc(Cc2n[nH]c(=O)c3ccccc23)ccc1F)N1CCN(C(=O)C2CC2)CC1 [Olaparib] + CS(=O)(=O)CCNCc1ccc(-c2ccc3ncnc(Nc4ccc(OCc5cccc(F)c5)c(Cl)c4)c3c2)o1 [Lapatinib] (partner 2 µM)
The gist of the method:
as §1

On to NCI-H1793, for which the relative viability with Carfilzomib + Trametinib (first compound 0.001 µM) turned out to be 0.38; in the assay with Carfilzomib + Trametinib (first compound 0.003162 µM) it was 0.497; with Carfilzomib + Trametinib (first compound 0.01 µM), 0.46; in the assay with Carfilzomib + Trametinib (first compound 0.03162 µM), 0.472; with Carfilzomib + Trametinib (first compound 0.1 µM), 0.35; with Carfilzomib + Foretinib (first compound 0.003162 µM), 0.664. Besides, the relative viability came to 0.823 with Carfilzomib + Foretinib (first compound 0.01 µM); 0.707 in the assay with Carfilzomib + Foretinib (first compound 0.03162 µM); 0.393 in the assay with Carfilzomib + Foretinib (first compound 0.1 µM); 0.342 with Crizotinib + Tozasertib (first compound 0.03162 µM); 0.32 in the assay with Crizotinib + Tozasertib (first compound 0.1 µM); 0.449 in the assay with Crizotinib + Tozasertib (first compound 1 µM). In addition, the relative viability with Olaparib + Luminespib (first compound 0.08 µM) came to 0.144; with Olaparib + Luminespib (first compound 0.253 µM), 0.225; with Olaparib + Luminespib (first compound 2.53 µM), 0.138; in the assay with Olaparib + Luminespib (first compound 8 µM), 0.149; with Olaparib + Lapatinib (first compound 0.08 µM) it was 0.641; in the assay with Olaparib + Lapatinib (first compound 0.253 µM) it was 0.5. In addition, the relative viability with Olaparib + Lapatinib (first compound 2.53 µM) came to 0.578; with Olaparib + Lapatinib (first compound 8 µM), 0.649.

The record behind these values is the supplement of paper PMC10307832.
